Active and inactive are the calls of the source. The rule behind the calls is not given here.
What was measured:
[1] = biological target: T1, C-C chemokine receptor type 3 (Homo sapiens) (UniProt P51677); test: Antagonist activity at human CCR3 expressed in CHO-K1 cells at 20 uM by PathHunter beta-arrestin assay relative to control; format: cell-based; details: filed as antagonist
T1 sequence (whole entry): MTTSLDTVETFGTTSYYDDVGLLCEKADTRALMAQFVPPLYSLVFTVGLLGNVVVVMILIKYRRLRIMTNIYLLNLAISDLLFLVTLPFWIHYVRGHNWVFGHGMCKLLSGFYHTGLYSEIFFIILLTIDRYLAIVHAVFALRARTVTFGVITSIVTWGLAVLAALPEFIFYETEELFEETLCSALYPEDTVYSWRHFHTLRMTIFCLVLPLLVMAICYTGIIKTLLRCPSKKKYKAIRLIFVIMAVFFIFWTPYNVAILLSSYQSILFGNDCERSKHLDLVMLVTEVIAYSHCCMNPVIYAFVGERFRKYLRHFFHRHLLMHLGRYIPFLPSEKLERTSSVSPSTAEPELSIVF

[2] = biological target: T2, C-C chemokine receptor type 8 (Homo sapiens, UniProt P51685); test: Antagonist activity at human CCR8 expressed in CHO-K1 cells at 20 uM by PathHunter beta-arrestin assay relative to control; format: cell-based; details: filed as antagonist
[3] = biological target: T3, Follicle-stimulating hormone receptor (Homo sapiens) (UniProt P23945); test: Antagonist activity at human FSHR expressed in CHO-K1 cells at 20 uM by PathHunter beta-arrestin assay relative to control; format: cell-based; details: filed as antagonist
T3 sequence (whole entry): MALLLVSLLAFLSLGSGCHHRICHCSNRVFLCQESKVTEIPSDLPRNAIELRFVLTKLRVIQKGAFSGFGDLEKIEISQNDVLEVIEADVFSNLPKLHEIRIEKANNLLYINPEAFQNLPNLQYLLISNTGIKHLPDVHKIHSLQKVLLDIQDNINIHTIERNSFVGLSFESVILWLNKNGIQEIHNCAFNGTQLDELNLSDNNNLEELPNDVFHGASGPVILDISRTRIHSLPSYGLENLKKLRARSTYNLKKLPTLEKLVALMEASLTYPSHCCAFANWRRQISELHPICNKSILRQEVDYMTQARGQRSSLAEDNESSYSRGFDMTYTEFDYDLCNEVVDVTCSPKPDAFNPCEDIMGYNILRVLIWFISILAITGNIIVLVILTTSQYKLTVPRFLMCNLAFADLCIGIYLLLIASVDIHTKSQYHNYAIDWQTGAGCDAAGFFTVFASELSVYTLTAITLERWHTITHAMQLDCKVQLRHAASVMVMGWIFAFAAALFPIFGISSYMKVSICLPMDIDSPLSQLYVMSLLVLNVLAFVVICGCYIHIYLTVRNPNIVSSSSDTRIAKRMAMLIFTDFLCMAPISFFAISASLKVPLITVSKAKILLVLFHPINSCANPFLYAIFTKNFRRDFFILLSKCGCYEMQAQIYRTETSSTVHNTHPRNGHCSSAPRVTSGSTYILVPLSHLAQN

[4] = tested on: U2OS; test: Antagonist activity at NPSR1B in human U2OS cells at 20 uM by PathHunter beta-arrestin assay relative to control; format: cell-based; details: filed as antagonist
[5] = biological target: T4, Vasopressin V2 receptor (Homo sapiens, UniProt P30518); test: Antagonist activity at human AVPR2 by PathHunter beta-arrestin assay
[6] = biological target: T5, Oxytocin receptor (Homo sapiens, UniProt P30559); test: Antagonist activity at human OXTR expressed in CHO-K1 cells by PathHunter beta-arrestin assay; format: cell-based
T5 sequence (P30559 whole entry): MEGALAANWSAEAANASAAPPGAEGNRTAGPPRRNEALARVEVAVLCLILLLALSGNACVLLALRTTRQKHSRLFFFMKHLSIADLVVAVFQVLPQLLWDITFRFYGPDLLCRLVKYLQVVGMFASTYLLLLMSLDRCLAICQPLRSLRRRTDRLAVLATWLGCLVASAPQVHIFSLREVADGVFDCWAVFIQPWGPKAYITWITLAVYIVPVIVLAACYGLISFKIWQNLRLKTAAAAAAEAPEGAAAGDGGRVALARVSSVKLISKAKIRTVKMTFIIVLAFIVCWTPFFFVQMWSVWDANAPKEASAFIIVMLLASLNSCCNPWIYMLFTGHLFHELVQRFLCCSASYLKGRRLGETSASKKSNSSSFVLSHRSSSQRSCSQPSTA

[7] = biological target: Vasopressin V1a receptor (Homo sapiens) (UniProt P37288); test: Antagonist activity at AVPR1A in human U2OS cells at 20 uM by PathHunter beta-arrestin assay; format: cell-based; details: filed as antagonist
[8] = biological target: T6, Vasopressin V1b receptor (Homo sapiens) (UniProt P47901); test: Antagonist activity at human AVPR1B expressed in CHO-K1 cells at 20 uM by PathHunter beta-arrestin assay; format: cell-based; details: filed as antagonist
T6 sequence (whole entry): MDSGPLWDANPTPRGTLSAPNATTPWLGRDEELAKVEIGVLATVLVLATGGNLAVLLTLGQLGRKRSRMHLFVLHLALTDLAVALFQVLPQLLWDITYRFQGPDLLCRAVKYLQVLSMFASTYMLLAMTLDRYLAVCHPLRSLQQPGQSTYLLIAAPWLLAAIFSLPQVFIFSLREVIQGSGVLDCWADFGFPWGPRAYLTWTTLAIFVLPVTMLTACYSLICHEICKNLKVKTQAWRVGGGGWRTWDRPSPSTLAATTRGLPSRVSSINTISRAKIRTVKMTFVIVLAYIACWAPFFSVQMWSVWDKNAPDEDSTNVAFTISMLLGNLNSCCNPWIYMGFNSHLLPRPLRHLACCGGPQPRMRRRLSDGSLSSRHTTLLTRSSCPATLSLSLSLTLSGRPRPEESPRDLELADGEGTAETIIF

[9] = biological target: T4, Vasopressin V2 receptor; test: Agonist activity at human AVPR2 at 20 uM by PathHunter beta-arrestin assay relative to control
[10] = tested on: U2OS; test: Agonist activity at NPSR1B in human U2OS cells at 20 uM by PathHunter beta-arrestin assay relative to control; format: cell-based
[11] = biological target: T7, Prolactin-releasing peptide receptor (Homo sapiens) (UniProt P49683); test: Agonist activity at human PRLHR expressed in CHO-K1 cells at 20 uM by PathHunter beta-arrestin assay relative to control; format: cell-based
T7 sequence (whole entry): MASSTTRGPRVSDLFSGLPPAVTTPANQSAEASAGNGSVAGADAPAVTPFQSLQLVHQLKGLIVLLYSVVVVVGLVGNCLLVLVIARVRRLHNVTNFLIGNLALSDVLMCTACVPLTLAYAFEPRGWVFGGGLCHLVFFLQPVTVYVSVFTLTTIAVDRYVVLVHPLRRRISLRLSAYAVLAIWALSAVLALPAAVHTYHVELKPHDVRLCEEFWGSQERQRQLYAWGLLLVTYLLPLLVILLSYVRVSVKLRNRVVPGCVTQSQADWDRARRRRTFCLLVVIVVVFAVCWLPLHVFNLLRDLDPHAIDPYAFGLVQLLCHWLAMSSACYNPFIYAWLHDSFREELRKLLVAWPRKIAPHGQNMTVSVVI

[12] = biological target: T8, C-C chemokine receptor type 3 (Homo sapiens, UniProt P51677); test: Antagonist activity at human CCR3 expressed in CHO-K1 cells by PathHunter beta-arrestin assay; format: cell-based
T8 sequence (P51677 whole entry): T1 sequence (whole entry)

[13] = biological target: T2, C-C chemokine receptor type 8; test: Antagonist activity at human CCR8 expressed in CHO-K1 cells by PathHunter beta-arrestin assay; format: cell-based

T2 sequence (P51685 whole entry): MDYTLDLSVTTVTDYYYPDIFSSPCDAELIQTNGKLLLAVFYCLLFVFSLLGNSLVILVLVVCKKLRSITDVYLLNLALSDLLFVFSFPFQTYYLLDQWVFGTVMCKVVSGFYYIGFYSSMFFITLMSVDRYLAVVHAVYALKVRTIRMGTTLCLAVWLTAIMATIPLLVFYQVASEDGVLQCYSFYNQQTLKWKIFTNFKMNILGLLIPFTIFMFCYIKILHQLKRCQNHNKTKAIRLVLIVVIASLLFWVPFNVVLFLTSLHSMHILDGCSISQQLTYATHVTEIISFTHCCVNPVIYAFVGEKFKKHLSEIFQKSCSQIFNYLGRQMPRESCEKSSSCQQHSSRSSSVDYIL
T4 sequence (P30518 whole entry): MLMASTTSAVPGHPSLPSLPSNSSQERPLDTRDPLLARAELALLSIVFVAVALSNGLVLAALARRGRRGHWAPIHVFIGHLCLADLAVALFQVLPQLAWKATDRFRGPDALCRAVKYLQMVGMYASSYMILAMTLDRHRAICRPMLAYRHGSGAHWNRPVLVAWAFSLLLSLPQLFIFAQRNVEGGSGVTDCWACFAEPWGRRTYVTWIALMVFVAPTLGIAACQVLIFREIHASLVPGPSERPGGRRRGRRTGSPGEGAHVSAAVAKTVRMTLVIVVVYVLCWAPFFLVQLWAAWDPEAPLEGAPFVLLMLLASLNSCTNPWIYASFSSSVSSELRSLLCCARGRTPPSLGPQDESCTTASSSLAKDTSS
Chain of Vasopressin V1a receptor (Homo sapiens) (P37288 whole entry, looked up): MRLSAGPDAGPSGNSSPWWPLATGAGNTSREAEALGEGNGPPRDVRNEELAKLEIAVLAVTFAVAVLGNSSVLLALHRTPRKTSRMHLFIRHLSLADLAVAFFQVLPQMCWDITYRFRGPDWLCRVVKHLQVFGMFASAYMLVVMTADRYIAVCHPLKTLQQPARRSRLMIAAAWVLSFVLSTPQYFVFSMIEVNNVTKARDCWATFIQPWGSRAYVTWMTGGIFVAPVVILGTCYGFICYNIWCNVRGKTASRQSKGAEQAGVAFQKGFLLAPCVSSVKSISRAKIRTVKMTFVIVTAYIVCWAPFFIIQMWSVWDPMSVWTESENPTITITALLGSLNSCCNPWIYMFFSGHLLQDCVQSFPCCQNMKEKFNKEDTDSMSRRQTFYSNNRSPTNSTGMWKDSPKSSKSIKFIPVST

SMILES	inhibition [1]	inhibition [2]	inhibition [3]	inhibition [4]	IC50 [5]	IC50 ([5]; read-out: IC50)	IC50 [6]	inhibition [7]	inhibition [8]	Activity [9]	Activity [10]	Activity [11]	IC50 [12]	IC50 [13]
COC(=O)[C@@H]1[C@H]2C[C@@H]3N(CC[C@@]34C(=O)N(Cc3cccc(OC)c3)c3ccccc34)C[C@@H]2CC[C@@H]1OCc1cccc(OC)c1	89%	88%	56%	48%	Dose-dependent effect	0.459 µM	1.16 µM	Active	Active	inactive	inactive	inactive		
COC(=O)[C@@H]1[C@H]2C[C@@H](c3[nH]c4ccccc4c3CCn3cc(-c4cccc(Cl)c4)nn3)N(C#N)C[C@@H]2CC[C@@H]1O	112%	90%	51%	62%						inactive	inactive	inactive	8.3 µM	7.29 µM
